The record followed here is patent publication US7354567B2, “Method of encapsulating metal complex within liposomes” (Bio Med Core Incorporation, priority 2002, dated 2008).

Data set [1] in a line: Partition coefficient of HMPAO and MRP20 (octanol/buffer, absorbance). Type of data set: physicochemical. As to the method: 4. Measurement of Partition Coefficient of HMPAO and MRP20
20 μl of HMPAO or MRP20 solutions adjusted to 8 mM with a physiology saline solution was added to 500 μl of octanol and 500 μl of a HEPES buffer solution (pH 7.0) or Na2HPO4—NaOH buffer solution (pH 12.0). The mixture was allowed to stand still after stirring. Absorption of the octanol layer and the aqueous layer was measured, and the lipophilic properties of the two complexes were compared.

Data set [2] can be described thus: Stability of 99mTc complex in an aqueous solution (radiochemical purity over time). Type of data set: physicochemical. The settings on record: for radiochemical purity: after purification by RP-HPLC, after 24 hours. As to the method:
5. Stability of ^99mTc Complex in an Aqueous Solution
In order to compare the stability of ^99mTc-HMPAO and ^99mTc-MRP20 in an aqueous solution, ^99mTc-HMPAO solution was diluted with 50 mM ammonia buffer solution (pH 9.4) into the final ligand concentration of 1 mM. The mixture was incubated in a water bath of 25° C. or 37° C., and radiochemical purity was determined by the above-mentioned analyzing methods after predetermined time (0.5, 2, 4, 8, or 24 hours). ^99mTc-MRP20 aqueous solution was diluted with 50 mM phosphate buffer solution (pH 8.3), and the similar operations were effected.
For the purpose of examining the effect of free ligands on the stability, ^99mTc complex solution was purified by RP-HPLC, and the purified ^99mTc complex solution eluted in 100% acetonitrile was mixed and diluted in the ratio of 1:1 with a buffer solution, and changes over time of the radiochemical purity of the complex was examined similarly as for the complex before purification.

`CC(=O)C=C(C)NCCNCc1ccc[nH]1` [MRP20, N-[2-(1H-pyrrolylmethyl)]-N′-(4-penten-3-one-2)-ethane-1,2-diamine]: the “ratio of absorbances in the octanol layer and the water layer” value was 2.1±0.7 in data set [1] (pH of the buffer 7.0) and 5.0±1.6 in data set [1] (pH of the buffer 12.0).

On to `C/C(=N\O)C(C)NCC(C)(C)CNC(C)/C(C)=N/O` (centres unmarked) [HMPAO, hexamethyl propyleneamine oxime, reference compound], for which the “Absorbance transferred to the octanol layer” value in data set [1] (octanol / buffer (pH 7.0 or pH 12.0)) is “below the detection limit”.

In data set [2] (25° C.), `C/C(=N\[O-])[C@@H](C)[N-]CC(C)(C)C[N-][C@H](C)/C(C)=N/O.[O]=[99Tc+3]` [^99mTc-HMPAO, ^99mTc-hexamethyl propyleneamine oxime, reference compound] registered a radiochemical purity of 59%. The “radiochemical purity remaining (decomposed to)” value in data set [2] (unpurified complex, 30 minutes after complex formation) is recorded as “about 40%”.

In the case of “^99mTc-N-[2-(1H-pyrrolylmethyl)]-N′-(4-penten-3-on-2)-ethane-1,2-diamine [^99mTc-MRP20]”, the radiochemical purity in data set [2] (25° C.) worked out at 6%. Further, in data set [2] (unpurified complex, 25° C., 4 hours after complex formation), the “radiochemical purity remaining (decomposed to)” value is “about 40%”. For the same compound, the radiochemical purity retained entry in data set [2] (unpurified complex, 2 hours after complex formation) is reported as “about 70%”.
